Laboratory results as given in ChEMBL document CHEMBL1123640, “Synthesis and antiviral activity of carbocyclic analogues of xylofuranosides of 2-amino-6-substituted-purines and 2-amino-6-substituted-8-azapurines” (1987).
pEC50: −log10 of the molar value. ≈ marks a conversion by molar mass, not a printed value.

What was measured:
Human alphaherpesvirus 1 [1] = experiment: Minimum inhibitory concentration required to inhibit Herpes simplex virus type 1 (strain 377) induced cytopathogenic effects by 50%. (experiment 1); assay type: functional
Human alphaherpesvirus 1 [2] = experiment: Minimum inhibitory concentration required to inhibit Herpes simplex virus type 1 (strain 377) induced cytopathogenic effects by 50%. (experiment 2); assay type: functional
Human alphaherpesvirus 1 [3] = experiment: The compound was tested in vitro for definite and significant anti viral activity against Herpes simplex virus type 1 (strain 377) (experiment 1); value indicates definite and significant antiviral activity; assay type: functional
Human alphaherpesvirus 1 [4] = experiment: The compound was tested in vitro for definite and significant anti viral activity against Herpes simplex virus type 1 (strain 377) (experiment 2); value indicates definite and significant antiviral activity; assay type: functional
Human alphaherpesvirus 2 [5] = experiment: Minimum inhibitory concentration required to inhibit Herpes simplex virus type 2 (strain MS) induced cytopathogenic effects by 50%. (experiment 1); assay type: functional; conditions: Human alphaherpesvirus 2, MS
Human alphaherpesvirus 2 [6] = experiment: Minimum inhibitory concentration required to inhibit Herpes simplex virus type 2 (strain MS) induced cytopathogenic effects by 50%. (experiment 2); assay type: functional; conditions: Human alphaherpesvirus 2, MS
Human alphaherpesvirus 2 [7] = experiment: The compound was tested in vitro for definite and significant anti viral activity against Herpes simplex virus type 2 (strain MS) (experiment 1); value indicates definite and significant antiviral activity; assay type: functional
Human alphaherpesvirus 2 [8] = experiment: The compound was tested in vitro for definite and significant anti viral activity against Herpes simplex virus type 2 (strain MS) (experiment 2); value indicates definite and significant antiviral activity; assay type: functional
P388 = experiment: Tested for inhibitory activity against P-388 leukemia cells; assay type: functional; conditions: Mus musculus, read-out: ED50 (the source's name)
Human alphaherpesvirus 1 [9] = experiment: The compound was tested in vitro for anti viral activity against Herpes simplex virus type 1 (strain 377) (experiment 1); value indicates definite and significant antiviral activity; assay type: functional
Human alphaherpesvirus 1 [10] = experiment: The compound was tested in vitro for anti viral activity against Herpes simplex virus type 1 (strain 377) (experiment 2); value indicates definite and significant antiviral activity; assay type: functional
Homo sapiens [11] = species on record: Homo sapiens; experiment: Antiviral activity against Varicella-Zoster virus (VV) in human foreskin cell cultures in virus plaque reduction assay at 1 uM; assay type: functional
Homo sapiens [12] = species on record: Homo sapiens; experiment: Antiviral activity against Varicella-Zoster virus (VV) in human foreskin cell cultures in virus plaque reduction assay at 10 uM; assay type: functional
Homo sapiens [13] = species on record: Homo sapiens; experiment: Antiviral activity against Varicella-Zoster virus (VV) in human foreskin cell cultures in virus plaque reduction assay at 100 uM; assay type: functional
Homo sapiens [14] = species on record: Homo sapiens; experiment: Antiviral activity against Varicella-Zoster virus (VV) in human foreskin cell cultures in virus plaque reduction assay at 1000 uM; assay type: functional
Homo sapiens [15] = species on record: Homo sapiens; experiment: Antiviral activity against Varicella-Zoster virus (VV) in human foreskin cell cultures in virus plaque reduction assay at 3.2uM; assay type: functional
Homo sapiens [16] = species on record: Homo sapiens; experiment: Antiviral activity against Varicella-Zoster virus (VV) in human foreskin cell cultures in virus plaque reduction assay at 32 uM; assay type: functional
Homo sapiens [17] = species on record: Homo sapiens; experiment: Antiviral activity against Varicella-Zoster virus (VV) in human foreskin cell cultures in virus plaque reduction assay at 320 uM; assay type: functional
MRC5 [18] = experiment: Percent reduction of CPE (plaques) at the time of harvest at 1 uM; assay type: functional, Homo sapiens
MRC5 [19] = experiment: Percent reduction of CPE (plaques) at the time of harvest at 10 uM; assay type: functional, Homo sapiens
MRC5 [20] = experiment: Percent reduction of CPE (plaques) at the time of harvest at 100 uM; assay type: functional, Homo sapiens
MRC5 [21] = experiment: Percent reduction of CPE (plaques) at the time of harvest at 1000 uM (308 ug/mL); assay type: functional, Homo sapiens
MRC5 [22] = experiment: Percent reduction of CPE (plaques) at the time of harvest at 3.2 uM; assay type: functional, Homo sapiens
MRC5 [23] = experiment: Replication of human cytomegalovirus strain […] virus yield expressed as plaque forming units/mL at 1 uM; assay type: functional
MRC5 [24] = experiment: Replication of human cytomegalovirus strain […] virus yield expressed as plaque forming units/mL at 10 uM; assay type: functional
MRC5 [25] = experiment: Replication of human cytomegalovirus strain […] virus yield expressed as plaque forming units/mL at 100 uM; assay type: functional
MRC5 [26] = experiment: Cytotoxicity (gross morphology) was evaluated at 100 uM; assay type: functional, Homo sapiens
MRC5 [27] = experiment: Cytotoxicity (gross morphology) was evaluated at 32 uM; assay type: functional, Homo sapiens
MRC5 [28] = experiment: (§1) Cytotoxicity was determined at 100 uM; assay type: functional, Homo sapiens
MRC5 [29] = experiment: Replication of human cytomegalovirus strain […] virus yield expressed as plaque forming units/mL at 1000 uM (308 ug/mL); assay type: functional
MRC5 [30] = experiment: Replication of human cytomegalovirus strain […] virus yield expressed as plaque forming units/mL at 32 uM; assay type: functional
MRC5 [31] = experiment: Replication of human cytomegalovirus strain […] virus yield expressed as plaque forming units/mL at 320 uM; assay type: functional
MRC5 [32] = experiment: Cytotoxicity (gross morphology) was evaluated at 1 uM; assay type: functional, Homo sapiens
MRC5 [33] = experiment: Cytotoxicity (gross morphology) was evaluated at 10 uM; assay type: functional, Homo sapiens
MRC5 [34] = experiment: (§2) Cytotoxicity was determined at 32 uM; assay type: functional, Homo sapiens
MRC5 [35] = experiment: (§3) Cytotoxicity was determined at 320 uM; assay type: functional, Homo sapiens
MRC5 [36] = experiment: Percent reduction of CPE (plaques) at the time of harvest at 320 uM; assay type: functional, Homo sapiens
MRC5 [37] = experiment: Replication of human cytomegalovirus strain […] virus yield reduction assay in human diploid embryonic lung cells (MRC5) at 100 uM; assay type: functional
MRC5 [38] = experiment: Replication of human cytomegalovirus strain […] virus yield reduction assay in human diploid embryonic lung cells (MRC5) at 1 uM; assay type: functional
MRC5 [39] = experiment: Replication of human cytomegalovirus strain […] virus yield reduction assay in human diploid embryonic lung cells (MRC5) at 1000 uM (308 ug/mL); assay type: functional
MRC5 [40] = experiment: Replication of human cytomegalovirus strain […] virus yield reduction assay in human diploid embryonic lung cells (MRC5) at 10 uM; assay type: functional
MRC5 [41] = experiment: Replication of human cytomegalovirus strain […] virus yield reduction assay in human diploid embryonic lung cells (MRC5) at 3.2 uM; assay type: functional
MRC5 [42] = experiment: Replication of human cytomegalovirus strain […] virus yield reduction assay in human diploid embryonic lung cells (MRC5) at 32 uM; assay type: functional
MRC5 [43] = experiment: Replication of human cytomegalovirus strain […] virus yield reduction assay in human diploid embryonic lung cells (MRC5) at 320 uM; assay type: functional
MRC5 [44] = experiment: Replication of human cytomegalovirus strain […] virus yield expressed as plaque forming units/mL at 3.2 uM; assay type: functional
MRC5 [45] = experiment: Cytotoxicity (gross morphology) was evaluated at 3.2uM; assay type: functional, Homo sapiens
MRC5 [46] = experiment: Percent reduction of CPE (plaques) at the time of harvest at 32 uM; assay type: functional, Homo sapiens
Human alphaherpesvirus 2 [47] = experiment: Minimum inhibitory concentration required to inhibit Herpes simplex virus type 2 (strain MS) induced cytopathogenic effects by 50%. (experiment 1)
Human alphaherpesvirus 2 [48] = experiment: Minimum inhibitory concentration required to inhibit Herpes simplex virus type 2 (strain MS) induced cytopathogenic effects by 50%. (experiment 2)
Human alphaherpesvirus 2 [49] = experiment: The compound was tested in vitro for anti viral activity against Herpes simplex virus type 2 (strain MS) (experiment 1); value indicates definite and significant antiviral activity
Human alphaherpesvirus 2 [50] = experiment: The compound was tested in vitro for anti viral activity against Herpes simplex virus type 2 (strain MS) (experiment 2); value indicates definite and significant antiviral activity
Homo sapiens [51] = species on record: Homo sapiens; experiment: as §1; assay type: functional
Homo sapiens [52] = species on record: Homo sapiens; experiment: Cytotoxicity was determined at 1000 uM; assay type: functional
Homo sapiens [53] = species on record: Homo sapiens; experiment: as §2; assay type: functional
Homo sapiens [54] = species on record: Homo sapiens; experiment: as §3; assay type: functional
Homo sapiens [55] = species on record: Homo sapiens; experiment: Antiviral activity against Varicella-Zoster virus (VV) in human foreskin cell cultures in virus plaque reduction assay at 3.2 uM; assay type: functional
Human alphaherpesvirus 1 [56] = experiment: Minimum inhibitory concentration required to inhibit Herpes simplex virus type 1 (strain 377) induced cytopathogenic effects by 50%.; assay type: functional
Human alphaherpesvirus 1 [57] = experiment: The compound was tested in vitro for anti viral activity against Herpes simplex virus type 1 (strain 377); assay type: functional
Human alphaherpesvirus 2 [58] = experiment: Minimum inhibitory concentration required to inhibit Herpes simplex virus type 2 (strain MS) induced cytopathogenic effects by 50%.; assay type: functional
Human alphaherpesvirus 2 [59] = experiment: The compound was tested in vitro for anti viral activity against Herpes simplex virus type 2 (strain MS); assay type: functional

## Nc1nc(O)c2nnn(C3CC(CO)C(O)C3O)c2n1 (stereo unspecified)
Human alphaherpesvirus 1 [1]
  MIC50: 60.8 µg/mL (≈ 215 µM)
Human alphaherpesvirus 1 [2]
  MIC50: 93.1 µg/mL (≈ 330 µM)
Human alphaherpesvirus 1 [3]
  Virus rating: 2.4
Human alphaherpesvirus 1 [4]
  Virus rating: 2.5
Human alphaherpesvirus 2 [5]
  MIC50: 92.2 µg/mL (≈ 327 µM)
Human alphaherpesvirus 2 [6]
  MIC50: 240 µg/mL (≈ 852 µM)
Human alphaherpesvirus 2 [7]
  Virus rating: 1.3
Human alphaherpesvirus 2 [8]
  Virus rating: 1.1
P388
  pEC50: 5.80

## Nc1nc(O)c2ncn(C3CC(CO)C(O)C3O)c2n1 (stereo unspecified)
Human alphaherpesvirus 1 [1]
  MIC50: 1.8 µg/mL (≈ 6.4 µM)
Human alphaherpesvirus 1 [2]
  MIC50: 3 µg/mL (≈ 10.7 µM)
Human alphaherpesvirus 1 [9]
  Virus rating: 5.7
Human alphaherpesvirus 1 [10]
  Virus rating: 5.6
Homo sapiens [11]
  Reduction: 18%
Homo sapiens [12]
  Reduction: 26%
Homo sapiens [13]
  Reduction: 100%
Homo sapiens [14]
  Reduction: 100%
Homo sapiens [15]
  Reduction: 18%
Homo sapiens [16]
  Reduction: 79%
Homo sapiens [17]
  Reduction: 100%
MRC5 [18]
  Reduction: 0%
MRC5 [19]
  Reduction: 0%
MRC5 [20]
  Reduction: 80%
MRC5 [21]
  Reduction: 100%
MRC5 [22]
  Reduction: 0%
MRC5 [23]
  CMV yield: 96000 pfu/ml
MRC5 [24]
  CMV yield: 96000 pfu/ml
MRC5 [25]
  CMV yield: 100 pfu/ml
MRC5 [26]
  Cytotoxicity: 0
MRC5 [27]
  Cytotoxicity: 0
MRC5 [28]
  Cytotoxicity: 0
MRC5 [29]
  CMV yield: 0 pfu/ml
MRC5 [30]
  CMV yield: 12800 pfu/ml
MRC5 [31]
  CMV yield: 0 pfu/ml
MRC5 [32]
  Cytotoxicity: 0
MRC5 [33]
  Cytotoxicity: 0
MRC5 [34]
  Cytotoxicity: 0
MRC5 [35]
  Cytotoxicity: 0
MRC5 [36]
  Reduction: 100%
MRC5 [37]
  Virus yield reduction: 3.2
MRC5 [38]
  Virus yield reduction: 0.2
MRC5 [39]
  Virus yield reduction: 5.2
MRC5 [40]
  Virus yield reduction: 0.2
MRC5 [41]
  Virus yield reduction: 0.2
MRC5 [42]
  Virus yield reduction: 1.1
MRC5 [43]
  Virus yield reduction: 5.2
P388
  pEC50: 5.05
MRC5 [44]
  CMV yield: 108000 pfu/ml
MRC5 [45]
  Cytotoxicity: 0
MRC5 [46]
  Reduction: 25%
Human alphaherpesvirus 2 [47]
  MIC50: 22.8 µg/mL (≈ 81.1 µM)
Human alphaherpesvirus 2 [48]
  MIC50: 23.5 µg/mL (≈ 83.5 µM)
Human alphaherpesvirus 2 [49]
  Virus rating: 2.6
Human alphaherpesvirus 2 [50]
  Virus rating: 3.9

## Nc1nc2c(ncn2COCCO)c(=O)[nH]1 [ACYCLOVIR]
Homo sapiens [51]
  Cytotoxicity: 0
Homo sapiens [52]
  Cytotoxicity: 0
Homo sapiens [53]
  Cytotoxicity: 0
Homo sapiens [54]
  Cytotoxicity: 0
Homo sapiens [11]
  Reduction: 35%
Homo sapiens [12]
  Reduction: 41%
Homo sapiens [13]
  Reduction: 94%
Homo sapiens [14]
  Reduction: 100%
Homo sapiens [55]
  Reduction: 32%
Homo sapiens [16]
  Reduction: 79%
Homo sapiens [17]
  Reduction: 100%

## Nc1nc2c(ncn2COC(CO)CO)c(=O)[nH]1 [GANCICLOVIR]
Homo sapiens [51]
  Cytotoxicity: 0
Homo sapiens [52]
  Reduction: 0
Homo sapiens [53]
  Cytotoxicity: 0
Homo sapiens [54]
  Cytotoxicity: 0
Homo sapiens [12]
  Reduction: 35%
Homo sapiens [13]
  Reduction: 82%
Homo sapiens [14]
  Reduction: 97%
Homo sapiens [55]
  Reduction: 24%
Homo sapiens [16]
  Reduction: 56%
Homo sapiens [17]
  Reduction: 97%

## Nc1ncnc2c1ncn2[C@@H]1O[C@H](CO)[C@@H](O)[C@@H]1O [VIDARABINE]
Human alphaherpesvirus 1 [56]
  MIC50: 9.8 µg/mL (≈ 36.7 µM)
Human alphaherpesvirus 1 [57]
  Virus rating: 3.1
Human alphaherpesvirus 2 [58]
  MIC50: 30 µg/mL (≈ 112 µM)
Human alphaherpesvirus 2 [59]
  Virus rating: 2.3
Homo sapiens [51]
  Cytotoxicity: 0
Homo sapiens [53]
  Cytotoxicity: 0
Homo sapiens [12]
  Reduction: 44%
Homo sapiens [13]
  Reduction: 97%
Homo sapiens [55]
  Reduction: 18%
Homo sapiens [16]
  Reduction: 97%
Homo sapiens [17]
  Reduction: 100%
